According to patent EP4603105A1, “PHARMACEUTICAL COMPOSITION CONTAINING CYCLIC COMPOUND HAVING SELECTIVE KRAS INHIBITORY EFFECT AGAINST HRAS AND NRAS” (CHUGAI SEIYAKU KABUSHIKI KAISHA, priority 2022, dated 2024):

Key:
[1] = molecular target: GDP-bound KRAS wild-type protein (Homo sapiens, UniProt P01116); experiment: Binding to KRAS by surface plasmon resonance (SPR), dissociation constant KD; details: 1:1 binding model
Procedure, shortened: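 Each cycle, GDP-bound biotin-Avi RAS was captured (~100–300 RU), compound concentrations were injected low to high for 75 s each at 100 µL/min, then the chip was regenerated. Buffer: HBS pH 7.4, 10 mM MgCl2, 10 µM GDP, 1 mM DTT, 4% DMSO; 30°C. KD from a 1:1 binding model.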

[2] = molecular target: GDP-bound NRAS wild-type protein (Homo sapiens, UniProt P01111); experiment: Binding to NRAS by surface plasmon resonance (SPR), KD and KD ratio to KRAS; details: ratio of KD for GDP-bound NRAS wild-type protein to KD for KRAS
GDP-bound NRAS wild-type protein, sequence (P01111 whole entry): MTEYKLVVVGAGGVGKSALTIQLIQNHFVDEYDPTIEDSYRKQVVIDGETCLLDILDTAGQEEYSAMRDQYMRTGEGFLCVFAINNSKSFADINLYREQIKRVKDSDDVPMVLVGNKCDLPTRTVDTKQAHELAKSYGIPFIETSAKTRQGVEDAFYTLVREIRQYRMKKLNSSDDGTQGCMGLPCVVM
Procedure, shortened: (§1)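 GDP-loaded biotinylated Avi-tag RAS proteins (E. coli-expressed) captured on a Biotin CAPture chip at ~100–300 RU; single-cycle kinetics at 30°C, 100 µL/min, 75 s injections of rising compound concentrations. HBS pH 7.4 running buffer with 1 mM DTT, 10 mM MgCl2, 10 µM GDP, 4% DMSO. KD from 1:1 binding fit.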

HRAS wild-type protein = HRAS wild-type protein (Homo sapiens, UniProt P01112); experiment: Binding to HRAS by surface plasmon resonance (SPR), KD and KD ratio to KRAS; details: ratio of KD for HRAS wild-type protein to KD for KRAS
HRAS wild-type protein, sequence (P01112 whole entry): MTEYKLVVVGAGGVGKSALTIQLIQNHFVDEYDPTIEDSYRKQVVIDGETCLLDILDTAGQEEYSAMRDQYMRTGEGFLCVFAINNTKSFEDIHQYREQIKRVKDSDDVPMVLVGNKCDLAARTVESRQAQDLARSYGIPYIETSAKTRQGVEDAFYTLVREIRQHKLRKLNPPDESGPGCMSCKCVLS
Procedure, shortened: as §1

[3] = test system: human lung cancer strain NCI-H441; format: cell-based
Procedure, shortened: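 Readout: […] after the ATP-based reagent. Compound: serial dilutions in dimethyl sulfoxide.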

GDP-bound KRAS wild-type protein, sequence (P01116 1-188 isoform P01116-2): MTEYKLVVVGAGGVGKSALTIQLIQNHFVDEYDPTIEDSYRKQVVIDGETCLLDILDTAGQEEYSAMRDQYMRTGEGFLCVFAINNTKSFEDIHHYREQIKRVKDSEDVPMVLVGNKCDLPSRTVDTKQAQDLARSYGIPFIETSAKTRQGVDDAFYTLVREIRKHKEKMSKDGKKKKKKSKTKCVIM

SMILES	Kd [1] [nM]	IC50 [3] [nM]	NRAS /KRAS [2]	HRAS /KRAS (HRAS wild-type protein)
CCO[C@@H]1C[C@H]2C(=O)NC3(CC(C)(C)C3)C(=O)N(C)[C@@H](C3CCCC3)C(=O)N(C)[C@H](C(=O)N(C)CC)CC(=O)N(C)[C@@H]([C@H](C)OC)C(=O)N[C@@H]([C@@H](C)CC)C(=O)N3CCC[C@H]3C(=O)N(C)[C@H]3C/C=C\CCN(C3=O)[C@@H](Cc3ccc(C)cc3)C(=O)N(C)CC(=O)N[C@@H](CCc3ccc(C(F)(F)F)c(OC)c3)C(=O)N2C1 [PP3161]	2.3	150	A (a compound having 10 or more and less than 20 is denoted as A)	A (a compound having 10 or more and less than 20 is denoted as A)
CCO[C@@H]1C[C@H]2C(=O)NC3(CC(C)(C)C3)C(=O)N(C)[C@@H](C3CCCC3)C(=O)N(C)[C@H](C(=O)N(C)C)CC(=O)N(C)[C@@H]([C@H](C)OC)C(=O)N[C@@H]([C@@H](C)CC)C(=O)N(C3CC3)CC(=O)N(C)[C@H]3C/C=C\CCN(C3=O)[C@@H](Cc3ccc(C(F)(F)F)cc3)C(=O)N(C)CC(=O)N[C@@H](CCc3ccc(C(F)(F)F)c(Cl)c3)C(=O)N2C1 [PP3177]	0.49	21.6	A (a compound having 10 or more and less than 20 is denoted as A)	A (a compound having 10 or more and less than 20 is denoted as A)
CCO[C@@H]1C[C@H]2C(=O)NC3(CC(C)(C)C3)C(=O)N(C)[C@@H](C3CCCC3)C(=O)N(C)[C@H](C(=O)N(C)C)CC(=O)N(C)[C@@H]([C@H](C)OC)C(=O)N[C@@H]([C@@H](C)CC)C(=O)N3CCC[C@H]3C(=O)N(C)[C@H]3C/C=C\CCN(C3=O)[C@@H](Cc3ccc(C(F)(F)F)cc3)C(=O)N(C)CC(=O)N[C@@H](CCc3ccc(C(F)(F)F)c(OC)c3)C(=O)N2C1 [PP3179]	0.77	70.9	A (a compound having 10 or more and less than 20 is denoted as A)	A (a compound having 10 or more and less than 20 is denoted as A)
CCO[C@@H]1C[C@H]2C(=O)NC3(CC(C)(C)C3)C(=O)N(C)[C@@H](C3CCCC3)C(=O)N(C)[C@H](C(=O)N(C)CC)CC(=O)N(C)[C@@H]([C@@H](C)OC)C(=O)N[C@@H]([C@@H](C)CC)C(=O)N(C)CC(=O)N(C)[C@H]3C/C=C\CCN(C3=O)[C@@H](Cc3ccc(C)cc3)C(=O)N(C)CC(=O)N[C@@H](CCc3ccc(C(F)(F)F)c(Cl)c3)C(=O)N2C1 [PP3180]	0.37	13.3	B (a compound having 3 or more and less than 10 is denoted as B)	B (a compound having 3 or more and less than 10 is denoted as B)
CCO[C@@H]1C[C@H]2C(=O)NC3(CC(C)(C)C3)C(=O)N(C)[C@@H](C3CCCC3)C(=O)N(C)[C@H](C(=O)N(C)CC)CC(=O)N(C)[C@@H]([C@@H](C)OC)C(=O)N[C@@H]([C@@H](C)CC)C(=O)N(C3CC3)CC(=O)N(C)[C@H]3C/C=C\CCN(C3=O)[C@@H](Cc3ccc(C)cc3)C(=O)N(C)CC(=O)N[C@@H](CCc3ccc(C(F)(F)F)c(OC)c3)C(=O)N2C1 [PP3182]	0.87	76.6	A (a compound having 10 or more and less than 20 is denoted as A)	A (a compound having 10 or more and less than 20 is denoted as A)
CCO[C@@H]1C[C@H]2C(=O)NC3(CC(C)(C)C3)C(=O)N(C)[C@@H](C3CCCC3)C(=O)N(C)[C@H](C(=O)N(C)C)CC(=O)N(C)[C@@H]([C@H](C)OC)C(=O)N[C@@H]([C@@H](C)CC)C(=O)N3CCC[C@H]3C(=O)N(C)[C@H]3C/C=C\CCN(C3=O)[C@@H](Cc3ccc(C(F)(F)F)cc3)C(=O)N(C)CC(=O)N[C@@H](CCc3ccc(C(F)(F)F)c(Cl)c3)C(=O)N2C1 [PP3183]	1.2	63.6	B (a compound having 3 or more and less than 10 is denoted as B)	B (a compound having 3 or more and less than 10 is denoted as B)
CCO[C@@H]1C[C@H]2C(=O)NC3(CC(C)(C)C3)C(=O)N(C)[C@@H](C3CCCC3)C(=O)N(C)[C@H](C(=O)N(C)C)CC(=O)N(C)[C@@H]([C@H](C)OC)C(=O)N[C@@H]([C@@H](C)CC)C(=O)N(C)CC(=O)N(C)[C@H]3C/C=C\CCN(C3=O)[C@@H](Cc3ccc(C)cc3)C(=O)N(C)CC(=O)N[C@@H](CCc3ccc(C(F)(F)F)c(OC)c3)C(=O)N2C1 [PP3185]	0.12	16.1	A (a compound having 10 or more and less than 20 is denoted as A)	A (a compound having 10 or more and less than 20 is denoted as A)
CCO[C@@H]1C[C@H]2C(=O)NC3(CC(C)(C)C3)C(=O)N(C)[C@@H](C3CCCC3)C(=O)N(C)[C@H](C(=O)N(C)CC)CC(=O)N(C)[C@@H]([C@@H](C)OC)C(=O)N[C@@H]([C@@H](C)CC)C(=O)N3CCC[C@H]3C(=O)N(C)[C@H]3C/C=C\CCN(C3=O)[C@@H](Cc3ccc(C)cc3)C(=O)N(C)CC(=O)N[C@@H](CCc3ccc(C(F)(F)F)c(OC)c3)C(=O)N2C1 [PP3188]	0.99	64.7	A (a compound having 10 or more and less than 20 is denoted as A)	A (a compound having 10 or more and less than 20 is denoted as A)
CCO[C@@H]1C[C@H]2C(=O)NC3(CC(C)(C)C3)C(=O)N(C)[C@@H](C3CCCC3)C(=O)N(C)[C@H](C(=O)N(C)C)CC(=O)N(C)[C@@H]([C@H](C)OC)C(=O)N[C@@H]([C@@H](C)CC)C(=O)N(C)CC(=O)N(C)[C@H]3C/C=C\CCN(C3=O)[C@@H](Cc3ccc(C)cc3)C(=O)N(C)CC(=O)N[C@@H](CCc3ccc(C(F)(F)F)c(Cl)c3)C(=O)N2C1 [PP3189]	0.12	18.5	A (a compound having 10 or more and less than 20 is denoted as A)	A (a compound having 10 or more and less than 20 is denoted as A)

The next lines start with results.

Kd [1] [nM]	IC50 [3] [nM]	SMILES	NRAS /KRAS [2]	HRAS /KRAS (HRAS wild-type protein)
1.8	296	CCO[C@@H]1C[C@H]2C(=O)NC3(CC(C)(C)C3)C(=O)N(C)[C@@H](C3CCCC3)C(=O)N(C)[C@H](C(=O)N(C)CC)CC(=O)N(C)[C@@H]([C@H](C)OC)C(=O)N[C@@H]([C@@H](C)CC)C(=O)N3CCC[C@H]3C(=O)N(C)[C@H]3C/C=C\CCN(C3=O)[C@@H](Cc3ccc(C)cc3)C(=O)N(C)CC(=O)N[C@@H](CCc3cc(F)c(C(F)(F)F)c(F)c3)C(=O)N2C1 [PP3163]	A (a compound having 10 or more and less than 20 is denoted as A)	A (a compound having 10 or more and less than 20 is denoted as A)
0.092	11.6	CCO[C@@H]1C[C@H]2C(=O)NC3(CC(C)(C)C3)C(=O)N(C)[C@@H](C3CCCC3)C(=O)N(C)[C@H](C(=O)N(C)CC)CC(=O)N(C)[C@@H]([C@@H](C)OC)C(=O)N[C@@H]([C@@H](C)CC)C(=O)N(C)CC(=O)N(C)[C@H]3C/C=C\CCN(C3=O)[C@@H](Cc3ccc(C)cc3)C(=O)N(C)CC(=O)N[C@@H](CCc3cc(F)c(C(F)(F)F)c(F)c3)C(=O)N2C1 [PP3178]	A (a compound having 10 or more and less than 20 is denoted as A)	A (a compound having 10 or more and less than 20 is denoted as A)
0.96	51	CCO[C@@H]1C[C@H]2C(=O)NC3(CC(C)(C)C3)C(=O)N(C)[C@@H](C3CCCC3)C(=O)N(C)[C@H](C(=O)N(C)C)CC(=O)N(C)[C@@H]([C@H](C)OC)C(=O)N[C@@H]([C@@H](C)CC)C(=O)N3CCC[C@H]3C(=O)N(C)[C@H]3C/C=C\CCN(C3=O)[C@@H](Cc3ccc(C(F)(F)F)cc3)C(=O)N(C)CC(=O)N[C@@H](CCc3cc(F)c(C(F)(F)F)c(F)c3)C(=O)N2C1 [PP3181]	A (a compound having 10 or more and less than 20 is denoted as A)	B (a compound having 3 or more and less than 10 is denoted as B)
0.082	10.4	CCO[C@@H]1C[C@H]2C(=O)NC3(CC(C)(C)C3)C(=O)N(C)[C@@H](C3CCCC3)C(=O)N(C)[C@H](C(=O)N(C)C)CC(=O)N(C)[C@@H]([C@H](C)OC)C(=O)N[C@@H]([C@@H](C)CC)C(=O)N(C)CC(=O)N(C)[C@H]3C/C=C\CCN(C3=O)[C@@H](Cc3ccc(C)cc3)C(=O)N(C)CC(=O)N[C@@H](CCc3cc(F)c(C(F)(F)F)c(F)c3)C(=O)N2C1 [PP3187]	A (a compound having 10 or more and less than 20 is denoted as A)	A (a compound having 10 or more and less than 20 is denoted as A)
0.87	29.9	CCO[C@@H]1C[C@H]2C(=O)NC3(CC(C)(C)C3)C(=O)N(C)[C@@H](C3CCCC3)C(=O)N(C)[C@H](C(=O)N(C)CC)CC(=O)N(C)[C@@H]([C@@H](C)OC)C(=O)N[C@@H]([C@@H](C)CC)C(=O)N3CCC[C@H]3C(=O)N(C)[C@H]3C/C=C\CCN(C3=O)[C@@H](Cc3ccc(C)cc3)C(=O)N(C)CC(=O)N[C@@H](CCc3cc(F)c(C(F)(F)F)c(F)c3)C(=O)N2C1 [PP3190]	A (a compound having 10 or more and less than 20 is denoted as A)	B (a compound having 3 or more and less than 10 is denoted as B)
0.49	38.9	CCO[C@@H]1C[C@H]2C(=O)NC3(CC(C)(C)C3)C(=O)N(C)[C@@H](C3CCCC3)C(=O)N(C)[C@H](C(=O)N(C)C)CC(=O)N(C)[C@@H]([C@H](C)OC)C(=O)N[C@@H]([C@@H](C)CC)C(=O)N(C3CC3)CC(=O)N(C)[C@H]3C/C=C\CCN(C3=O)[C@@H](Cc3ccc(C)cc3)C(=O)N(C)CC(=O)N[C@@H](CCc3ccc(C(F)(F)F)c(OC)c3)C(=O)N2C1 [PP3191]	A (a compound having 10 or more and less than 20 is denoted as A)	A (a compound having 10 or more and less than 20 is denoted as A)
